Laboratory results from ChEMBL document CHEMBL1146468, “Plakolide A, a new gamma-lactone from the marine sponge Plakortis sp” (J Nat Prod, 2004).
Converted amounts (≈) assume the structure as drawn.

How the values were obtained:
PANC-1 = test: Cytotoxicity against human PANC1 cells after 72 hrs by MTT assay; assay type: functional, cell-based; conditions: PANC-1, 72 h
[1] = target: T1, Nitric oxide synthase, inducible (Mus musculus, UniProt P29477); test: Inhibition of iNOS-mediated NO production in LPS-stimulated mouse RAW264.7 cells by Griess method; assay type: cell-based
T1 sequence (P29477 whole entry): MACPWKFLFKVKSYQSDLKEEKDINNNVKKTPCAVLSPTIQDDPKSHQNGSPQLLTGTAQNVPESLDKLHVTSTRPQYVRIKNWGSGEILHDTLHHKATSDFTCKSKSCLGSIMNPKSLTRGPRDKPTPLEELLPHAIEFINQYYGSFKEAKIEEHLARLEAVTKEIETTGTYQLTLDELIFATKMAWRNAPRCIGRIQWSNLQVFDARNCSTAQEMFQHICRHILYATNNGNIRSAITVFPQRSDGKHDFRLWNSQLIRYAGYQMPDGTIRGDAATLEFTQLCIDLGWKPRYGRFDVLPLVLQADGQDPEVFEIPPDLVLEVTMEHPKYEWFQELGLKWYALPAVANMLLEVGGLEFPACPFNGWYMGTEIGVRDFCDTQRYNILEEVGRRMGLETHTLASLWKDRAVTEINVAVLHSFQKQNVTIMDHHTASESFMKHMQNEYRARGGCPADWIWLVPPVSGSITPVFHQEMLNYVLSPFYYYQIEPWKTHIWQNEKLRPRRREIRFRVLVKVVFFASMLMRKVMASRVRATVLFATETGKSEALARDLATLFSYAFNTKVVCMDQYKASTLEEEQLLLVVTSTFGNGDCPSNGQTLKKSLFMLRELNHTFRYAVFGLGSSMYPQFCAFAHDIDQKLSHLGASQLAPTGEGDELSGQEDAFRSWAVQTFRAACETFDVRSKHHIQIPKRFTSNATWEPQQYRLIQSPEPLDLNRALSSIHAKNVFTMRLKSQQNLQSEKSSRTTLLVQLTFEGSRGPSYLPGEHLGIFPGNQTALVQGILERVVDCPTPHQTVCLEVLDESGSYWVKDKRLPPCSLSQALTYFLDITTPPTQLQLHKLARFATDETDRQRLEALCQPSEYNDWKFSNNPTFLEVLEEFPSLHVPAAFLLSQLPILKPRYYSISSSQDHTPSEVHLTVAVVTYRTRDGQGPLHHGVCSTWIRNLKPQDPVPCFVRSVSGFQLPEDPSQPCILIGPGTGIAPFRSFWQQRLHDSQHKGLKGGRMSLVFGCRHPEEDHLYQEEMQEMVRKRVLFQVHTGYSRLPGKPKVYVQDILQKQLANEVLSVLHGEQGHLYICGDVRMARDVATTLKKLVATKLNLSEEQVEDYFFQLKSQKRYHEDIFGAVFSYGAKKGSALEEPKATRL

[2] = Cytotoxicity against human NCI/ADR cells after 72 hrs by MTT assay; assay type: functional, cell-based; conditions: NCI/ADR-RES
A549 = test: Cytotoxicity against human A549 cells after 72 hrs by MTT assay; assay type: functional, cell-based; conditions: A549, 72 h
[3] = Cytotoxicity against mouse RAW264.7 cells assessed as cell viability at 1.3 ug/ml after 3 hrs by MTT assay; assay type: cell-based; conditions: read-out: Activity
P388 = test: Cytotoxicity against mouse P388 cells after 72 hrs by MTT assay; assay type: functional, cell-based; conditions: P388, 72 h

## C=C1C[C@@](C)(/C=C/C=C/CCCCCCCC)OC1=O [PLAKOLIDE A]
PANC-1
  IC50: 3.8 µg/mL (≈ 13.7 µM)
[1]
  IC50: 724 nM
[2]
  IC50: 3.7 µg/mL (≈ 13.4 µM)
A549
  IC50: 5 µg/mL (≈ 18.1 µM)
[3]
  viability at 3 h, 1.3 ug/ml: 50%
P388
  IC50: 1.1 µg/mL (≈ 3.98 µM)
